According to ChEMBL document CHEMBL4765227, “Hit to lead optimization of a series of N-[4-(1,3-benzothiazol-2-yl)phenyl]acetamides as monoacylglycerol lipase inhibitors with potential anticancer activity” (Eur J Med Chem, 2016):

Legend:
Assay type in all cases: functional
Settings in all cases: read-out: GI
[1] = test system: CCRF-CEM; experiment: Growth inhibition of human CCRF-CEM cells at 10 uM incubated for 48 hrs by sulforhodamine B assay relative to control
[2] = test system: HL-60(TB); experiment: Growth inhibition of human HL-60(TB) cells at 10 uM incubated for 48 hrs by sulforhodamine B assay relative to control
[3] = test system: MOLT-4; experiment: Growth inhibition of human MOLT-4 cells at 10 uM incubated for 48 hrs by sulforhodamine B assay relative to control
[4] = test system: RPMI-8226; experiment: Growth inhibition of human RPMI-8226 cells at 10 uM incubated for 48 hrs by sulforhodamine B assay relative to control
[5] = test system: SR; experiment: Growth inhibition of human SR cells at 10 uM incubated for 48 hrs by sulforhodamine B assay relative to control
[6] = test system: A549; experiment: Growth inhibition of human A549/ATCC cells at 10 uM incubated for 48 hrs by sulforhodamine B assay relative to control
[7] = test system: HOP-62; experiment: Growth inhibition of human HOP-62 cells at 10 uM incubated for 48 hrs by sulforhodamine B assay relative to control
[8] = test system: HOP-92; experiment: Growth inhibition of human HOP-92 cells at 10 uM incubated for 48 hrs by sulforhodamine B assay relative to control
[9] = test system: NCI-H226; experiment: Growth inhibition of human NCI-H226 cells at 10 uM incubated for 48 hrs by sulforhodamine B assay relative to control
[10] = test system: COLO 205; experiment: Growth inhibition of human COLO 205 cells at 10 uM incubated for 48 hrs by sulforhodamine B assay relative to control
[11] = test system: HCC 2998; experiment: Growth inhibition of human HCC 2998 cells at 10 uM incubated for 48 hrs by sulforhodamine B assay relative to control
[12] = test system: HCT-116; experiment: Growth inhibition of human HCT-116 cells at 10 uM incubated for 48 hrs by sulforhodamine B assay relative to control
[13] = test system: HCT-15; experiment: Growth inhibition of human HCT-15 cells at 10 uM incubated for 48 hrs by sulforhodamine B assay relative to control
[14] = test system: HT-29; experiment: Growth inhibition of human HT-29 cells at 10 uM incubated for 48 hrs by sulforhodamine B assay relative to control
[15] = test system: SF-268; experiment: Growth inhibition of human SF-268 cells at 10 uM incubated for 48 hrs by sulforhodamine B assay relative to control
[16] = test system: SF-295; experiment: Growth inhibition of human SF-295 cells at 10 uM incubated for 48 hrs by sulforhodamine B assay relative to control
[17] = test system: SNB-19; experiment: Growth inhibition of human SNB-19 cells at 10 uM incubated for 48 hrs by sulforhodamine B assay relative to control
[18] = test system: SNB-75; experiment: Growth inhibition of human SNB-75 cells at 10 uM incubated for 48 hrs by sulforhodamine B assay relative to control
[19] = test system: U-251; experiment: Growth inhibition of human U-251 cells at 10 uM incubated for 48 hrs by sulforhodamine B assay relative to control
[20] = test system: LOX IMVI; experiment: Growth inhibition of human LOX IMVI cells at 10 uM incubated for 48 hrs by sulforhodamine B assay relative to control
[21] = test system: Malme-3M; experiment: Growth inhibition of human Malme-3M cells at 10 uM incubated for 48 hrs by sulforhodamine B assay relative to control
[22] = test system: M14; experiment: Growth inhibition of human M14 cells at 10 uM incubated for 48 hrs by sulforhodamine B assay relative to control
[23] = test system: SK-MEL-28; experiment: Growth inhibition of human SK-MEL-28 cells at 10 uM incubated for 48 hrs by sulforhodamine B assay relative to control
[24] = test system: SK-MEL-5; experiment: Growth inhibition of human SK-MEL-5 cells at 10 uM incubated for 48 hrs by sulforhodamine B assay relative to control
[25] = test system: UACC-257; experiment: Growth inhibition of human UACC-257 cells at 10 uM incubated for 48 hrs by sulforhodamine B assay relative to control
[26] = test system: UACC-62; experiment: Growth inhibition of human UACC-62 cells at 10 uM incubated for 48 hrs by sulforhodamine B assay relative to control
[27] = test system: IGROV-1; experiment: Growth inhibition of human IGROV-1 cells at 10 uM incubated for 48 hrs by sulforhodamine B assay relative to control
[28] = test system: OVCAR-3; experiment: Growth inhibition of human OVCAR-3 cells at 10 uM incubated for 48 hrs by sulforhodamine B assay relative to control
[29] = test system: OVCAR-4; experiment: Growth inhibition of human OVCAR-4 cells at 10 uM incubated for 48 hrs by sulforhodamine B assay relative to control
[30] = test system: OVCAR-5; experiment: Growth inhibition of human OVCAR-5 cells at 10 uM incubated for 48 hrs by sulforhodamine B assay relative to control
[31] = test system: NCI/ADR-RES; experiment: Growth inhibition of human NCI/ADR-RES cells at 10 uM incubated for 48 hrs by sulforhodamine B assay relative to control
[32] = test system: SK-OV-3; experiment: Growth inhibition of human SK-OV-3 cells at 10 uM incubated for 48 hrs by sulforhodamine B assay relative to control
[33] = test system: 786-0; experiment: Growth inhibition of human 786-0 cells at 10 uM incubated for 48 hrs by sulforhodamine B assay relative to control
[34] = test system: ACHN; experiment: Growth inhibition of human ACHN cells at 10 uM incubated for 48 hrs by sulforhodamine B assay relative to control
[35] = test system: CAKI-1; experiment: Growth inhibition of human CAKI-1 cells at 10 uM incubated for 48 hrs by sulforhodamine B assay relative to control
[36] = test system: RXF 393; experiment: Growth inhibition of human RXF 393 cells at 10 uM incubated for 48 hrs by sulforhodamine B assay relative to control
[37] = test system: TK-10; experiment: Growth inhibition of human TK-10 cells at 10 uM incubated for 48 hrs by sulforhodamine B assay relative to control
[38] = test system: PC-3; experiment: Growth inhibition of human PC-3 cells at 10 uM incubated for 48 hrs by sulforhodamine B assay relative to control
[39] = test system: DU-145; experiment: Growth inhibition of human DU-145 cells at 10 uM incubated for 48 hrs by sulforhodamine B assay relative to control
[40] = test system: MCF7; experiment: Growth inhibition of human MCF7 cells at 10 uM incubated for 48 hrs by sulforhodamine B assay relative to control
[41] = test system: Hs-578T; experiment: Growth inhibition of human Hs-578T cells at 10 uM incubated for 48 hrs by sulforhodamine B assay relative to control
[42] = test system: BT-549; experiment: Growth inhibition of human BT-549 cells at 10 uM incubated for 48 hrs by sulforhodamine B assay relative to control
[43] = test system: T47D; experiment: Growth inhibition of human T47D cells at 10 uM incubated for 48 hrs by sulforhodamine B assay relative to control
[44] = test system: MDA-MB-468; experiment: Growth inhibition of human MDA-MB-468 cells at 10 uM incubated for 48 hrs by sulforhodamine B assay relative to control

## O=C(Cn1cncn1)Nc1ccc(-c2nc3ccccc3s2)cc1
[1]
  inhibition of growth at 10 µM: -4.97%
[2]
  inhibition of growth at 10 µM: -2.11%
[3]
  inhibition of growth at 10 µM: 8.15%
[4]
  inhibition of growth at 10 µM: 16.8%
[5]
  inhibition of growth at 10 µM: 16.2%
[6]
  inhibition of growth at 10 µM: 11.9%
[7]
  inhibition of growth at 10 µM: -2.28%
[8]
  inhibition of growth at 10 µM: 6.49%
[9]
  inhibition of growth at 10 µM: 25%
[10]
  inhibition of growth at 10 µM: -6.86%
[11]
  inhibition of growth at 10 µM: 6.06%
[12]
  inhibition of growth at 10 µM: 4.58%
[13]
  inhibition of growth at 10 µM: -1.4%
[14]
  inhibition of growth at 10 µM: -4.68%
[15]
  inhibition of growth at 10 µM: 2.87%
[16]
  inhibition of growth at 10 µM: 8.06%
[17]
  inhibition of growth at 10 µM: 6.99%
[18]
  inhibition of growth at 10 µM: 7.87%
[19]
  inhibition of growth at 10 µM: 10%
[20]
  inhibition of growth at 10 µM: 0.66%
[21]
  inhibition of growth at 10 µM: -0.27%
[22]
  inhibition of growth at 10 µM: -11.2%
[23]
  inhibition of growth at 10 µM: -11%
[24]
  inhibition of growth at 10 µM: 13.3%
[25]
  inhibition of growth at 10 µM: -2.17%
[26]
  inhibition of growth at 10 µM: 4.77%
[27]
  inhibition of growth at 10 µM: 7.64%
[28]
  inhibition of growth at 10 µM: 8.95%
[29]
  inhibition of growth at 10 µM: 19.4%
[30]
  inhibition of growth at 10 µM: -15%
[31]
  inhibition of growth at 10 µM: -1.6%
[32]
  inhibition of growth at 10 µM: 0.14%
[33]
  inhibition of growth at 10 µM: 4.38%
[34]
  inhibition of growth at 10 µM: -10.5%
[35]
  inhibition of growth at 10 µM: 6.2%
[36]
  inhibition of growth at 10 µM: -25.3%
[37]
  inhibition of growth at 10 µM: -6.22%
[38]
  inhibition of growth at 10 µM: 14.2%
[39]
  inhibition of growth at 10 µM: 5.46%
[40]
  inhibition of growth at 10 µM: 63.9%
[41]
  inhibition of growth at 10 µM: -3.42%
[42]
  inhibition of growth at 10 µM: 8.47%
[43]
  inhibition of growth at 10 µM: 35.1%
[44]
  inhibition of growth at 10 µM: 130%

## O=C(Cn1cnc2ccccc21)Nc1ccc(-c2nc3ccccc3s2)cc1
[1]
  inhibition of growth at 10 µM: 27.1%
[2]
  inhibition of growth at 10 µM: 29.8%
[3]
  inhibition of growth at 10 µM: 44.2%
[4]
  inhibition of growth at 10 µM: 62.6%
[5]
  inhibition of growth at 10 µM: 60%
[6]
  inhibition of growth at 10 µM: 39%
[7]
  inhibition of growth at 10 µM: 12.6%
[8]
  inhibition of growth at 10 µM: 18.4%
[9]
  inhibition of growth at 10 µM: 36.9%
[10]
  inhibition of growth at 10 µM: 22.5%
[11]
  inhibition of growth at 10 µM: 24.9%
[12]
  inhibition of growth at 10 µM: 56.5%
[13]
  inhibition of growth at 10 µM: 7.41%
[14]
  inhibition of growth at 10 µM: 12.7%
[15]
  inhibition of growth at 10 µM: 14.7%
[16]
  inhibition of growth at 10 µM: 56.7%
[17]
  inhibition of growth at 10 µM: 28.5%
[18]
  inhibition of growth at 10 µM: 6.6%
[19]
  inhibition of growth at 10 µM: 30.6%
[20]
  inhibition of growth at 10 µM: 44.6%
[21]
  inhibition of growth at 10 µM: 18.9%
[22]
  inhibition of growth at 10 µM: 13.6%
[23]
  inhibition of growth at 10 µM: -0.72%
[24]
  inhibition of growth at 10 µM: 70.9%
[25]
  inhibition of growth at 10 µM: 37.9%
[26]
  inhibition of growth at 10 µM: 13%
[27]
  inhibition of growth at 10 µM: 35.1%
[28]
  inhibition of growth at 10 µM: 35.8%
[29]
  inhibition of growth at 10 µM: 57.9%
[30]
  inhibition of growth at 10 µM: -5.63%
[31]
  inhibition of growth at 10 µM: 38.9%
[32]
  inhibition of growth at 10 µM: 15.1%
[33]
  inhibition of growth at 10 µM: 20.5%
[34]
  inhibition of growth at 10 µM: 15.5%
[35]
  inhibition of growth at 10 µM: 38.1%
[36]
  inhibition of growth at 10 µM: 6.89%
[37]
  inhibition of growth at 10 µM: 22.6%
[38]
  inhibition of growth at 10 µM: 33.3%
[39]
  inhibition of growth at 10 µM: 21.8%
[40]
  inhibition of growth at 10 µM: 50.6%
[41]
  inhibition of growth at 10 µM: 8.79%
[42]
  inhibition of growth at 10 µM: 43.5%
[43]
  inhibition of growth at 10 µM: 52.8%
[44]
  inhibition of growth at 10 µM: 70.3%
